Data: PubChem BioAssay (NCI)
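1) Cells in 96-well plates. 2) Compound, 48 h, 5 concentrations. 3) Linear interpolation between surrounding doses. 4) Unreached endpoint = highest concentration. GI50 = concentration required for 50% inhibition of growth. TGI marks complete inhibition of growth.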

What was measured:
Assay in all cases: NCI tumour cell line growth inhibition, 48 h
786-0 renal = system: 786-0 renal
A498 renal = system: A498 renal
A549 NSCLC = system: A549 NSCLC
ACHN renal = system: ACHN renal
BT-549 breast = system: BT-549 breast
CAKI-1 renal = system: CAKI-1 renal
CCRF-CEM leukemia = system: CCRF-CEM leukemia
COLO 205 colon = system: COLO 205 colon
DU-145 prostate = system: DU-145 prostate
HCC-2998 colon = system: HCC-2998 colon
HCT-116 colon = system: HCT-116 colon
HCT-15 colon = system: HCT-15 colon
HL-60(TB) leukemia = system: HL-60(TB) leukemia
HOP-62 NSCLC = system: HOP-62 NSCLC
HOP-92 NSCLC = system: HOP-92 NSCLC
HS 578T breast = system: HS 578T breast
HT29 colon = system: HT29 colon
IGROV1 ovarian = system: IGROV1 ovarian
K-562 leukemia = system: K-562 leukemia
KM12 colon = system: KM12 colon
LOX IMVI melanoma = system: LOX IMVI melanoma
M14 melanoma = system: M14 melanoma
MALME-3M melanoma = system: MALME-3M melanoma
MCF7 breast = system: MCF7 breast
MDA-MB-231 breast = system: MDA-MB-231 breast
MDA-MB-435 = system: MDA-MB-435
MOLT-4 leukemia = system: MOLT-4 leukemia
NCI-H226 lung = system: NCI-H226 lung
NCI-H23 lung = system: NCI-H23 lung
NCI-H460 lung = system: NCI-H460 lung
NCI/ADR-RES ovarian = system: NCI/ADR-RES ovarian
OVCAR-3 ovarian = system: OVCAR-3 ovarian
OVCAR-4 ovarian = system: OVCAR-4 ovarian
OVCAR-5 ovarian = system: OVCAR-5 ovarian
OVCAR-8 ovarian = system: OVCAR-8 ovarian
PC-3 prostate = system: PC-3 prostate
RPMI-8226 leukemia = system: RPMI-8226 leukemia
RXF 393 renal = system: RXF 393 renal
SF-268 CNS = system: SF-268 CNS
SF-295 CNS = system: SF-295 CNS
SF-539 CNS = system: SF-539 CNS
SK-MEL-2 melanoma = system: SK-MEL-2 melanoma
SK-MEL-28 melanoma = system: SK-MEL-28 melanoma
SK-MEL-5 melanoma = system: SK-MEL-5 melanoma
SK-OV-3 ovarian = system: SK-OV-3 ovarian
SN12C renal = system: SN12C renal
SNB-19 CNS = system: SNB-19 CNS
SNB-75 CNS = system: SNB-75 CNS
SR leukemia = system: SR leukemia
SW-620 colon = system: SW-620 colon
T-47D breast = system: T-47D breast
TK-10 renal = system: TK-10 renal
U251 CNS = system: U251 CNS
UACC-257 melanoma = system: UACC-257 melanoma
UACC-62 melanoma = system: UACC-62 melanoma
UO-31 renal = system: UO-31 renal
EKVX NSCLC = system: EKVX NSCLC
NCI-H522 lung = system: NCI-H522 lung

COc1cc2c(c(OC)c1OC)-c1ccc(SC)c(=O)cc1[C@@H](NC1OC(CO)C(O)C(O)C1O)CC2 (stereo not given in full)
GI50 (786-0 renal): 57.5 nM
TGI (786-0 renal): > 100000 nM
GI50 (A498 renal): 13.5 nM
TGI (A498 renal): 67.4 nM
GI50 (A549 NSCLC): 38.5 nM
TGI (A549 NSCLC): > 100000 nM
GI50 (ACHN renal): 74.4 nM
TGI (ACHN renal): > 100000 nM
GI50 (BT-549 breast): 67.9 nM
TGI (BT-549 breast): > 100000 nM
GI50 (CAKI-1 renal): 72.7 nM
TGI (CAKI-1 renal): > 100000 nM
GI50 (CCRF-CEM leukemia): 38.2 nM
TGI (CCRF-CEM leukemia): > 100000 nM
GI50 (COLO 205 colon): 16.1 nM
TGI (COLO 205 colon): 41.2 nM
GI50 (DU-145 prostate): 35.2 nM
TGI (DU-145 prostate): > 100000 nM
GI50 (HCC-2998 colon): 36.8 nM
TGI (HCC-2998 colon): > 100000 nM
GI50 (HCT-116 colon): 31.4 nM
TGI (HCT-116 colon): > 100000 nM
GI50 (HCT-15 colon): 37.4 nM
TGI (HCT-15 colon): > 100000 nM
GI50 (HL-60(TB) leukemia): 22.7 nM
TGI (HL-60(TB) leukemia): 66.6 nM
TGI (HOP-62 NSCLC): > 100000 nM
GI50 (HOP-92 NSCLC): 37.3 nM
TGI (HOP-92 NSCLC): > 57900 nM
GI50 (HS 578T breast): 42.5 nM
TGI (HS 578T breast): 61000 nM
GI50 (HT29 colon): 28 nM
TGI (HT29 colon): 79.4 nM
GI50 (IGROV1 ovarian): 63.5 nM
TGI (IGROV1 ovarian): > 100000 nM
GI50 (K-562 leukemia): 22.7 nM
TGI (K-562 leukemia): > 100000 nM
GI50 (KM12 colon): 24 nM
GI50 (LOX IMVI melanoma): 37 nM
TGI (LOX IMVI melanoma): > 100000 nM
GI50 (M14 melanoma): 31.1 nM
TGI (M14 melanoma): > 100000 nM
GI50 (MALME-3M melanoma): 44800 nM
TGI (MALME-3M melanoma): > 100000 nM
GI50 (MCF7 breast): 21.5 nM
TGI (MCF7 breast): > 100000 nM
GI50 (MDA-MB-231 breast): 34.1 nM
TGI (MDA-MB-231 breast): > 100000 nM
TGI (MDA-MB-435): 37.3 nM
GI50 (MOLT-4 leukemia): 41.8 nM
TGI (MOLT-4 leukemia): > 100000 nM
GI50 (NCI-H226 lung): 1520 nM
TGI (NCI-H226 lung): > 100000 nM
GI50 (NCI-H23 lung): 56.8 nM
TGI (NCI-H23 lung): > 100000 nM
GI50 (NCI-H460 lung): 33.2 nM
TGI (NCI-H460 lung): > 100000 nM
GI50 (NCI/ADR-RES ovarian): 55.6 nM
TGI (NCI/ADR-RES ovarian): > 100000 nM
GI50 (OVCAR-3 ovarian): 24.4 nM
TGI (OVCAR-3 ovarian): 76.2 nM
GI50 (OVCAR-4 ovarian): 226 nM
TGI (OVCAR-4 ovarian): > 100000 nM
GI50 (OVCAR-5 ovarian): 51.9 nM
TGI (OVCAR-5 ovarian): > 100000 nM
GI50 (OVCAR-8 ovarian): 38.7 nM
TGI (OVCAR-8 ovarian): > 100000 nM
GI50 (PC-3 prostate): 34.7 nM
TGI (PC-3 prostate): > 100000 nM
GI50 (RPMI-8226 leukemia): 44.4 nM
TGI (RPMI-8226 leukemia): > 100000 nM
GI50 (RXF 393 renal): 61.3 nM
TGI (RXF 393 renal): > 100000 nM
GI50 (SF-268 CNS): 49 nM
TGI (SF-268 CNS): > 100000 nM
GI50 (SF-295 CNS): 33.8 nM
TGI (SF-295 CNS): > 100000 nM
GI50 (SF-539 CNS): 24.3 nM
TGI (SF-539 CNS): 70.3 nM
GI50 (SK-MEL-2 melanoma): 23.7 nM
TGI (SK-MEL-2 melanoma): 81 nM
GI50 (SK-MEL-28 melanoma): 1650 nM
TGI (SK-MEL-28 melanoma): > 100000 nM
GI50 (SK-MEL-5 melanoma): 28.8 nM
TGI (SK-MEL-5 melanoma): 195 nM
GI50 (SK-OV-3 ovarian): 39.6 nM
TGI (SK-OV-3 ovarian): > 100000 nM
GI50 (SN12C renal): 55.7 nM
TGI (SN12C renal): > 100000 nM
GI50 (SNB-19 CNS): 79.7 nM
TGI (SNB-19 CNS): > 100000 nM
GI50 (SNB-75 CNS): 43.9 nM
TGI (SNB-75 CNS): > 100000 nM
GI50 (SR leukemia): 12.7 nM
TGI (SR leukemia): > 100000 nM
GI50 (SW-620 colon): 29.4 nM
TGI (SW-620 colon): > 100000 nM
GI50 (T-47D breast): > 74900 nM
TGI (T-47D breast): > 100000 nM
GI50 (TK-10 renal): 47.8 nM
TGI (TK-10 renal): 31200 nM
GI50 (U251 CNS): 31.8 nM
TGI (U251 CNS): 24400 nM
GI50 (UACC-257 melanoma): 447 nM
TGI (UACC-257 melanoma): > 100000 nM
GI50 (UACC-62 melanoma): 54.9 nM
TGI (UACC-62 melanoma): > 100000 nM
GI50 (UO-31 renal): 86.4 nM
TGI (UO-31 renal): > 100000 nM

CCOc1nc(N)nc(C)c1N=Nc1ccc(Cl)cc1
TGI (786-0 renal): > 100000 nM
TGI (A549 NSCLC): > 100000 nM
TGI (ACHN renal): > 100000 nM
TGI (BT-549 breast): > 100000 nM
TGI (CAKI-1 renal): > 100000 nM
TGI (CCRF-CEM leukemia): > 100000 nM
TGI (COLO 205 colon): > 100000 nM
TGI (DU-145 prostate): > 100000 nM
TGI (EKVX NSCLC): > 100000 nM
TGI (HCT-116 colon): > 100000 nM
TGI (HCT-15 colon): > 100000 nM
TGI (HL-60(TB) leukemia): > 100000 nM
TGI (HOP-62 NSCLC): > 100000 nM
TGI (HOP-92 NSCLC): 88000 nM
TGI (HS 578T breast): 38400 nM
TGI (HT29 colon): > 100000 nM
TGI (IGROV1 ovarian): > 100000 nM
TGI (K-562 leukemia): > 100000 nM
TGI (KM12 colon): > 100000 nM
TGI (LOX IMVI melanoma): > 100000 nM
TGI (M14 melanoma): > 100000 nM
TGI (MALME-3M melanoma): > 100000 nM
TGI (MCF7 breast): > 100000 nM
TGI (MDA-MB-231 breast): > 100000 nM
TGI (MDA-MB-435): > 100000 nM
TGI (MOLT-4 leukemia): > 100000 nM
TGI (NCI-H226 lung): > 100000 nM
TGI (NCI-H23 lung): > 100000 nM
TGI (NCI-H460 lung): > 100000 nM
TGI (NCI-H522 lung): > 100000 nM
TGI (NCI/ADR-RES ovarian): > 100000 nM
TGI (OVCAR-3 ovarian): > 100000 nM
TGI (OVCAR-4 ovarian): > 100000 nM
TGI (OVCAR-5 ovarian): > 100000 nM
TGI (OVCAR-8 ovarian): > 100000 nM
TGI (PC-3 prostate): > 100000 nM
TGI (RPMI-8226 leukemia): 88400 nM
TGI (RXF 393 renal): > 100000 nM
TGI (SF-268 CNS): > 100000 nM
TGI (SF-295 CNS): 94100 nM
TGI (SF-539 CNS): > 100000 nM
TGI (SK-MEL-2 melanoma): > 100000 nM
TGI (SK-MEL-28 melanoma): > 100000 nM
TGI (SK-MEL-5 melanoma): > 100000 nM
TGI (SK-OV-3 ovarian): > 100000 nM
TGI (SN12C renal): 86400 nM
TGI (SNB-19 CNS): > 100000 nM
TGI (SNB-75 CNS): > 100000 nM
TGI (SR leukemia): 23900 nM
TGI (SW-620 colon): > 100000 nM
TGI (T-47D breast): > 100000 nM
TGI (TK-10 renal): > 100000 nM
TGI (U251 CNS): > 100000 nM
TGI (UACC-257 melanoma): > 100000 nM
TGI (UACC-62 melanoma): > 100000 nM
TGI (UO-31 renal): > 100000 nM
